From PubChem BioAssay (NCI) come the findings set out here.

Some test systems named below: ACHN renal; M14 melanoma; MOLT-4 leukemia; OVCAR-4 ovarian; OVCAR-8 ovarian; RPMI-8226 leukemia; SF-268 CNS; T-47D breast; TK-10 renal; UO-31 renal.
Assay in all cases: NCI-60 cell line screen, 48 h

“And” between values parts separate entries of the source, which are not always exact repeats. Equal values may be shown once.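 The compound was tested at five concentrations on cells cultured in 96-well plates, with a 48-hour exposure period. At the GI50, growth is halved. The concentration for full growth arrest is given as TGI.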

On to `COc1ccc(C2c3cc4c(cc3OC(NNC(N)=O)C2C)OCO4)cc1` (stereo not given), for which the TGI with ACHN renal was > 100 µM; with M14 melanoma, > 60.1 µM; with MOLT-4 leukemia, 74.5 µM; in the test with OVCAR-4 ovarian it was > 100 µM; with OVCAR-8 ovarian, > 57.9 µM; in the test with RPMI-8226 leukemia, 20.2 µM. For the same compound, the TGI was > 100 µM in the test on SF-268 CNS, > 100 µM in the test on T-47D breast, > 100 µM in the test on TK-10 renal and > 90.5 µM in the test with UO-31 renal.

`Cc1ccccc1CN1CC2=C(CCN(Cc3ccccc3)C2=O)N2CCN=C12`: the TGI in the test on ACHN renal, with M14 melanoma, in the test on MOLT-4 leukemia, with OVCAR-4 ovarian, with OVCAR-8 ovarian and with RPMI-8226 leukemia was > 100 µM throughout. Further, the TGI was > 100 µM in the test with SF-268 CNS, > 84.2 µM with T-47D breast, > 100 µM in the test on TK-10 renal and > 100 µM in the test on UO-31 renal.

As to `COc1cc(Cl)cc(-c2nn(C(=O)NCCN3CCN(C)CC3)cc2-c2ccncc2)c1`, the GI50 with ACHN renal is 4.16 µM; with M14 melanoma it was 9.46 µM; in the test with MOLT-4 leukemia, 29.4 µM; with OVCAR-4 ovarian, 4.35 µM; in the test on OVCAR-8 ovarian, 2.94 µM; with RPMI-8226 leukemia, 21.9 µM. In addition, the GI50 in the test with SF-268 CNS was 7.35 µM; with T-47D breast it was 20.8 µM; in the test with TK-10 renal, 3.67 µM; with UO-31 renal, 11.6 µM. Further, the TGI with ACHN renal was > 100 µM; in the test with M14 melanoma, 29.3 µM; with MOLT-4 leukemia, > 100 µM; in the test on OVCAR-4 ovarian it was > 100 µM; with OVCAR-8 ovarian, > 100 µM; with RPMI-8226 leukemia, > 100 µM. For the same compound, the TGI was > 100 µM with SF-268 CNS, > 100 µM in the test on T-47D breast, > 100 µM in the test on TK-10 renal and 62 µM with UO-31 renal.

As to `CCCCCNC(=O)[C@@H]1CCCN2C(=O)CC[C@H](NC(=O)[C@H](Cc3ccc(OP(=O)(O)O)cc3)NC(C)=O)C(=O)N12`, the GI50 in the test with ACHN renal, with M14 melanoma, in the test with MOLT-4 leukemia, with OVCAR-4 ovarian, in the test on OVCAR-8 ovarian and in the test on RPMI-8226 leukemia was > 25 µM throughout. In addition, the GI50 in the test with SF-268 CNS, in the test with T-47D breast, in the test on TK-10 renal and in the test with UO-31 renal was > 25 µM throughout. Moreover, the TGI in the test on ACHN renal, with M14 melanoma, in the test with MOLT-4 leukemia, in the test with OVCAR-4 ovarian, in the test on OVCAR-8 ovarian and in the test with RPMI-8226 leukemia was > 25 µM in each case. In addition, the TGI in the test with SF-268 CNS, in the test with T-47D breast, with TK-10 renal and with UO-31 renal was > 25 µM each time.

As for `CCN1C(=O)N(CC)C2C1NN=c1s/c(=C3\C(=O)N(CC(C)C)c4ccccc43)c(=O)n12` (stereo not given), the GI50 was 0.723 µM with ACHN renal; 0.445 µM with M14 melanoma; 0.974 µM in the test with MOLT-4 leukemia; 1.23 µM with OVCAR-4 ovarian; 1.33 µM in the test with OVCAR-8 ovarian; 1.42 µM in the test with RPMI-8226 leukemia. Also, the GI50 in the test on SF-268 CNS was 1.32 µM; in the test with T-47D breast, 0.311 µM; with TK-10 renal, 8.08 µM; in the test with UO-31 renal, 0.869 µM. Also, the TGI with ACHN renal was > 45 µM; in the test on M14 melanoma it was > 100 µM; with MOLT-4 leukemia, > 100 µM; in the test with OVCAR-4 ovarian, > 100 µM; in the test on OVCAR-8 ovarian it was > 100 µM; with RPMI-8226 leukemia, > 100 µM. Besides, the TGI in the test with SF-268 CNS is > 59.9 µM; in the test on T-47D breast it was > 100 µM; with TK-10 renal, > 56.6 µM; with UO-31 renal it was > 100 µM.

On to `C[C@@H]1O[C@@H](O[C@@H]2[C@@H](O)[C@H](OCCc3ccc(O)c(O)c3)O[C@H](COC(=O)/C=C/c3ccc(O)c(O)c3)[C@H]2O)[C@H](O)[C@H](O)[C@H]1O`, for which the GI50 in the test with ACHN renal was > 100 µM; with M14 melanoma, > 100 µM; in the test on MOLT-4 leukemia it was > 100 µM; in the test on OVCAR-4 ovarian, > 100 µM; in the test with RPMI-8226 leukemia, 13.7 µM; in the test with T-47D breast it was > 100 µM. Moreover, the GI50 in the test with TK-10 renal and in the test on UO-31 renal was > 100 µM in each case. Besides, the TGI in the test with ACHN renal was > 100 µM; with M14 melanoma, > 100 µM; in the test with MOLT-4 leukemia it was > 100 µM; in the test on OVCAR-4 ovarian, > 100 µM; in the test with RPMI-8226 leukemia, 43.4 µM; in the test with T-47D breast it was > 100 µM. The TGI with TK-10 renal and in the test on UO-31 renal was > 100 µM throughout.

For the compound `N#CC1=C(N)N=C(N2CCCCC2)C(C#N)C12Nc1ccccc1S2` (stereo not given), the GI50 is 27.1 µM with ACHN renal; 19.1 µM in the test with M14 melanoma; > 100 µM in the test on MOLT-4 leukemia; 37.9 µM in the test with OVCAR-4 ovarian; 38.3 µM in the test on OVCAR-8 ovarian; 84 µM with RPMI-8226 leukemia. Besides, the GI50 in the test with SF-268 CNS is 18.9 µM; in the test with T-47D breast, 35 µM; in the test on TK-10 renal, 29.6 µM; in the test with UO-31 renal it was 40.8 µM. Besides, the TGI was 76.4 µM in the test on ACHN renal; 46.8 µM in the test with M14 melanoma; > 100 µM with MOLT-4 leukemia; > 100 µM in the test on OVCAR-4 ovarian; > 100 µM in the test on OVCAR-8 ovarian; > 100 µM in the test with RPMI-8226 leukemia. The TGI in the test on SF-268 CNS was 67.2 µM; with T-47D breast, > 100 µM; with TK-10 renal, > 100 µM; in the test on UO-31 renal it was > 100 µM.

As to `S=c1nc(Oc2ccc(Cl)c(Cl)c2)[nH]c(=S)[nH]1`, the TGI with ACHN renal was > 82.2 µM; with M14 melanoma, > 100 µM; in the test on MOLT-4 leukemia, > 69.6 µM; with OVCAR-4 ovarian, > 82.2 µM; in the test on OVCAR-8 ovarian, 97.4 µM; in the test with RPMI-8226 leukemia it was 51.5 µM. In addition, the TGI in the test with SF-268 CNS is > 81.8 µM; with T-47D breast, 59.6 µM; in the test with TK-10 renal, > 100 µM; in the test on UO-31 renal, 71.2 µM.

As for `COc1ccc(/C=C\c2cc(OC)c(OC)c(OC)c2)cc1OC(=O)C(N)CCC(=O)O` (stereo not given), the GI50 in the test on M14 melanoma was 0.000565 µM; with MOLT-4 leukemia it was 0.00244 µM; in the test with OVCAR-8 ovarian it was 0.000112 µM; in the test on RPMI-8226 leukemia, 0.000691 µM and < 0.0316 µM; in the test on T-47D breast it was > 100 µM; in the test on UO-31 renal it was 0.000436 µM and < 0.0001 µM. For the same compound, the TGI in the test on OVCAR-4 ovarian, in the test with T-47D breast and with TK-10 renal was > 100 µM throughout.
